Measurements reported in US5439887A, “Peptide having antihypertensive activity free of vascoconstrictor activity” (Roussel-Uclaf, priority 1992, dated 1995).
pIC50: −log10 of the molar value. Bridge positions count the residues as written; N and C are the ends. Peptide text beside a SMILES is read from it.

Biological target: endothelin receptor
Assay: [125I]endothelin displacement from rat posterior cortex plus cerebellum membranes
Assay type: binding
Conditions: displacement of [125I]endothelin, rat brain membranes, 25° C., 60 minutes
Experimental: A membrane preparation was made from rat posterior cortex plus cerebellum and the tissue was ground using a POLYTRON in 50 mM Tris buffer pH 7.4. After 30 minutes at 25° C. (water bath), the homogenate was centrifuged at 30,000 g for 15 minutes (2 centrifugations interspersed by taking up in Tris buffer pH 7.4).
The pellets were resuspended in an incubation buffer (25 mM Tris, pepstatin A 5 μg/ml, aprotinin 3 μg/ml, 0.1 mM PMSF, 3 mM EDTA, 1 mM EGTA pH 7.4).
2 ml aliquots were distributed in haemolysis tubes and [125 I]endothelin (approximately 50,000 dpm/tube) and the test product were added. The product was first tested at […] in triplicate. When the test product displaced by more than 50% the radioactivity specifically bound to the receptor, it was tested again in a series of 7 concentrations to determine the concentration which inhibited by 50% the radioactivity specifically bound to the receptor. The 50% inhibitory concentration was thereby determined.
Non-specific binding was determined by adding 10^-6 M endothelin (in triplicate). The preparation was incubated at 25° C. for 60 minutes, put back on a water bath at 0° C. for 5 minutes, filtered off under reduced pressure and rinsed with […] Tris buffer pH 7.4, and the radioactivity was counted in the presence of Triton scintillant. The result was expressed directly as a 50% inhibitory concentration (IC50), that is to say as a concentration of test product, expressed in nM, required to displace 50% of the specific radioactivity bound to the receptor under study.

pIC50	SMILES
8.14	CC[C@H](C)[C@H](NC(=O)[C@H](CC(=O)O)NC(=O)[C@H](CC(C)C)NC(=O)[C@H](Cc1c[nH]cn1)NC(=O)[C@@H]1CSSC[C@H](NC(=O)[C@@H](N)CO)C(=O)N[C@@H](CC(N)=O)C(=O)N[C@@H](CO)C(=O)N[C@@H](Cc2c[nH]c3ccccc23)C(=O)N[C@@H](CC(C)C)C(=O)N[C@@H](CC(=O)O)C(=O)N[C@@H](CCCCN)C(=O)N[C@@H](CCC(=O)O)C(=O)N[C@@H](C)C(=O)N[C@@H](C(C)C)C(=O)N[C@@H](Cc2ccc(O)cc2)C(=O)N[C@@H](Cc2ccccc2)C(=O)N1)C(=O)N[C@H](C(=O)N[C@@H](Cc1c[nH]c2ccccc12)C(=O)O)[C@@H](C)CC [Example 16] (H-SCNSWLDKEAVYFCHLDIIW-OH; disulfide 2-14)
8.17	CC[C@H](C)[C@H](NC(=O)[C@H](CC(=O)O)NC(=O)[C@H](CC(=O)O)NC(=O)[C@H](Cc1c[nH]cn1)NC(=O)[C@@H]1CSSC[C@H](N)C(=O)N[C@@H](CO)C(=O)N[C@H]2CSSC[C@H](NC(=O)[C@H](CCC(=O)O)NC(=O)[C@H](CCCCN)NC(=O)[C@H](CC(=O)O)NC(=O)[C@H](CC(C)C)NC(=O)[C@H](Cc3c[nH]c4ccccc34)NC(=O)[C@H](CO)NC(=O)[C@H](CC(N)=O)NC2=O)C(=O)N[C@@H](C(C)C)C(=O)N[C@@H](Cc2ccc(O)cc2)C(=O)N[C@@H](Cc2ccccc2)C(=O)N1)C(=O)N[C@H](C(=O)N[C@@H](Cc1c[nH]c2ccccc12)C(=O)O)[C@@H](C)CC [Example 12] (H-CSCNSWLDKECVYFCHDDIIW-OH; disulfide 1-15, 3-11)
8.62	CC[C@H](C)[C@H](NC(=O)[C@H](CC(=O)O)NC(=O)[C@H](CC(C)C)NC(=O)[C@H](Cc1c[nH]cn1)NC(=O)[C@@H]1CSSC[C@H](N)C(=O)N[C@@H](CO)C(=O)N[C@H]2CSSC[C@H](NC(=O)[C@H](CCC(=O)O)NC(=O)[C@H](CCCCN)NC(=O)[C@H](CC(=O)O)NC(=O)[C@H](CC(C)C)NC(=O)[C@H](CC(=O)O)NC(=O)[C@H](CO)NC(=O)[C@H](Cc3ccccc3)NC2=O)C(=O)N[C@@H](C(C)C)C(=O)N[C@@H](Cc2ccc(O)cc2)C(=O)N[C@@H](Cc2ccccc2)C(=O)N1)C(=O)N[C@H](C(=O)N[C@@H](Cc1c[nH]c2ccccc12)C(=O)O)[C@@H](C)CC [Example 9] (H-CSCFSDLDKECVYFCHLDIIW-OH; disulfide 1-15, 3-11)
7.77	CC[C@H](C)[C@H](NC(=O)[C@H](CC(=O)O)NC(=O)[C@H](CC(C)C)NC(=O)[C@H](Cc1c[nH]cn1)NC(=O)[C@@H]1CSSC[C@H](NC(=O)[C@@H](N)CO)C(=O)N[C@@H](Cc2ccccc2)C(=O)N[C@@H](CO)C(=O)N[C@@H](CO)C(=O)N[C@@H](CC(C)C)C(=O)N[C@@H](CC(=O)O)C(=O)N[C@@H](CCCCN)C(=O)N[C@@H](CCC(=O)O)C(=O)N[C@@H](C)C(=O)N[C@@H](C(C)C)C(=O)N[C@@H](Cc2ccc(O)cc2)C(=O)N[C@@H](Cc2ccccc2)C(=O)N1)C(=O)N[C@H](C(=O)N[C@@H](Cc1c[nH]c2ccccc12)C(=O)O)[C@@H](C)CC [Example 15] (H-SCFSSLDKEAVYFCHLDIIW-OH; disulfide 2-14)
